Laboratory results from patent US7795290B2 (Genentech, Inc., priority 2004, dated 2010).

Assays:
Assay in all cases: HTS ATP-utilizing enzyme assay, off-chip mobility-shift (Caliper HTS 250)
Format in all cases: biochemical
Settings in all cases: kinase named = inhibitory activity/selectivity; test compound 10 μM; active = greater than three-sigma from mean
[1] = target: CHEK2 (Homo sapiens, UniProt O96017)
Source text: (§1) The following procedures describe the reagent and plate preparation for a HTS of an ATP-utilizing enzyme, such as a protein kinase, run in an off-chip mobility-shift assay format. The following provides an HTS protocol for running a protein kinase HTS screen on a Caliper HTS 250 microfluidics system. The following parameters are dependent on the protein kinase used and can be determined by one skilled in the art as part of a typical assay development process. For example, the peptide substrate used can be identified from the current literature, by screening a peptide library of potential protein kinase substrates, or by other applicable means accepted in the field.
(§2) Assays to determine the kinase inhibitory activity of chemical entities of the present disclosure were performed using a Caliper HTS 250 microfluidics device, Greiner U-bottom assay plates, a Multidrop for transfer of reagents, and Biomek FX (AMNCBM03) software. Initially, 2.4 μL of a 1 mM solution of a test compound in 100% DMSO was added to a well of the Greiner U-bottom plate. A single Greiner U-bottom plate having 24×16 wells could include multiple test compounds. Next, 40 μL of 1.06× Assay Buffer was added to each well of the assay plate. Using the Biomek FX, 10 μL of 0.5 M EDTA was added by the span-8 to wells, indicated as 100% Control and 2.4 μL of 100% DMSO was added by the span-8 to wells, indicated as 0% Control. Using the Multidrop, 10 μL of 2.5× Enzyme Buffer, followed by 10 μL of 2.5× Substrate Buffer was added to each well of the assay plate. The total reaction volume in each well was 25 μL, and the concentration of the test compound was 10 μM. The assay plate was incubated for 2.5 hrs at 20° C. to 22° C. After the incubation period, using the Multidrop, 45 μL of 1.55× Termination Buffer was added to each well of the assay plate to stop the reaction. The inhibition of the ATP-utilizing enzyme, such as a particular protein kinase, was determined by measuring the ratio of the peptide substrate to phosphorylated product for each well of the assay plate using the Caliper HTS 250 system.
(§3) The use of three-sigma statistical limits represents a conservative method for declaring potential hits among targets. The three-sigma activity, as well as the mean population activity, can be different for each target enzyme. This method has an expected false positive rate, from an in-control measurement process, of […].
(§4) Each chemical entity listed in Table 2 was tested for protein kinase inhibitory activity according to the biological assays and definitions of protein kinase inhibitory activity as described herein. For each exemplary compound listed in Table 2, the inhibitory activity for at least one protein kinase according to the biological assays and definitions of protein kinase inhibitory activity as described herein is indicated.

[2] = target: T1, ZAP70 (Homo sapiens, UniProt P43403)
T1 sequence (P43403 1-619): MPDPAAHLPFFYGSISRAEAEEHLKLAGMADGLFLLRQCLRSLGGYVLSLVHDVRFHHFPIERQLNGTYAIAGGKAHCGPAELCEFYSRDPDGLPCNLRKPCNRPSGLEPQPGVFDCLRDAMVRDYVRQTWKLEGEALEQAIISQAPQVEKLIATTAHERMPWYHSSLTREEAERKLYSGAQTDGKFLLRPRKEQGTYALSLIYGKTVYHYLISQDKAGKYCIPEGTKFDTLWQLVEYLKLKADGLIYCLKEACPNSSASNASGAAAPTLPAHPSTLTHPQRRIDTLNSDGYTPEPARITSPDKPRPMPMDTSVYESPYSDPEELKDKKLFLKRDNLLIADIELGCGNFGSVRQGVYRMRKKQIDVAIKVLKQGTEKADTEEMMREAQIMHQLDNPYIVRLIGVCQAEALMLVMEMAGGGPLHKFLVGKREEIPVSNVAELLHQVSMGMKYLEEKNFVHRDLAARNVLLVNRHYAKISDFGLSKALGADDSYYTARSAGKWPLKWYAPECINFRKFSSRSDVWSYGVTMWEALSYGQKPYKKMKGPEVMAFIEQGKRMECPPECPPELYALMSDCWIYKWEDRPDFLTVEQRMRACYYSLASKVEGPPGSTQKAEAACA
Source text: as §1, §2, §3, §4

[3] = target: T2, AKT1 (Homo sapiens, UniProt P31749)
T2 construct: purchased Upstate 14-276
T2 sequence (P31749 whole entry): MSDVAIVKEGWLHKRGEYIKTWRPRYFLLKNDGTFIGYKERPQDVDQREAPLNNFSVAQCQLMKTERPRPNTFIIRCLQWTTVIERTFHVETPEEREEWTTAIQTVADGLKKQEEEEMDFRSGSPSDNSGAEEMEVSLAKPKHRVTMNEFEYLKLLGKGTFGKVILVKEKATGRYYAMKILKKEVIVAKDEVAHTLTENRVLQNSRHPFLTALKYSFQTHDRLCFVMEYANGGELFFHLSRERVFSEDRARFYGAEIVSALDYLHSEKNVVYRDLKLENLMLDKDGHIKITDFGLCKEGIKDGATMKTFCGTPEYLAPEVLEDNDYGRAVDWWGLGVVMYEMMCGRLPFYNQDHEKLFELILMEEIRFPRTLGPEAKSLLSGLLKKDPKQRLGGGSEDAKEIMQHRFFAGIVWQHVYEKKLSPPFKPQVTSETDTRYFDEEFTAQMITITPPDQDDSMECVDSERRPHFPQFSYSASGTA
Method in brief: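 AKT1 activity was measured by off-chip mobility shift (Caliper HTS 250) as the ratio of peptide substrate to phosphorylated product. Test compound was at 10 μM, with 2.5 h incubation at 20–22° C. EDTA wells served as 100% control and DMSO wells as 0%. Hits were called at three-sigma limits.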

[4] = target: T3, DYRK2 (Homo sapiens, UniProt Q92630)
T3 sequence (Q92630 1-601): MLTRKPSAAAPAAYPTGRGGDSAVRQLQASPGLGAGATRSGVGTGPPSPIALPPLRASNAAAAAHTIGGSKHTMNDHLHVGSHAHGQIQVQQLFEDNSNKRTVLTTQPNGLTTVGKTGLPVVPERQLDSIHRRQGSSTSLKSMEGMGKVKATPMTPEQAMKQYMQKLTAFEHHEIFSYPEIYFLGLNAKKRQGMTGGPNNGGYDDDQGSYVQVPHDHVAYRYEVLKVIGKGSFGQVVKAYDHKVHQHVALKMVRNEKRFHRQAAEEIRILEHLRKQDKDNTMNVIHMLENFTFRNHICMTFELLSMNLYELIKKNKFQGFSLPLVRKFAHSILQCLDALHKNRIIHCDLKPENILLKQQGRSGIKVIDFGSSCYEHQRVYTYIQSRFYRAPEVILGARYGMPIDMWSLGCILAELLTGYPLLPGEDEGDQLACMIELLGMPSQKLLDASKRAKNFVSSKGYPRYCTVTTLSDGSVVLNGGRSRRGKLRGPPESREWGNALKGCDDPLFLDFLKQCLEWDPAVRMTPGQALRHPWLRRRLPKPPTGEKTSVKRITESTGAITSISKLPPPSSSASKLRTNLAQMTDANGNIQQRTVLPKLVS
Source text: as §1, §2, §3, §4

Sequence of CHEK2 (O96017 whole entry): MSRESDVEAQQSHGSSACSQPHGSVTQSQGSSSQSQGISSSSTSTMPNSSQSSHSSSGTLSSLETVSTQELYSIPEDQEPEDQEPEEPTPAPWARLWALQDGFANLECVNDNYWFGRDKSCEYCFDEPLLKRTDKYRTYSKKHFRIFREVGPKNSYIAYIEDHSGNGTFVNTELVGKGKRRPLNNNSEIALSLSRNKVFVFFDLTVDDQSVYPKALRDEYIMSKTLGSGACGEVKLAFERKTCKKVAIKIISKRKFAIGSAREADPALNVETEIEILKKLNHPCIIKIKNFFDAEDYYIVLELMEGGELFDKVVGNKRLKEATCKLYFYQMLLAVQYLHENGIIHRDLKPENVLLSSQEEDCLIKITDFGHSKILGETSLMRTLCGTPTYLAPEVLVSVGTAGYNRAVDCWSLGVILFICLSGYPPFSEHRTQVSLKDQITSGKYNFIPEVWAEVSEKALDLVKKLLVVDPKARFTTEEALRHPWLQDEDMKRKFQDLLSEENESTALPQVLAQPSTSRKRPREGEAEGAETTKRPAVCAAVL

| SMILES | Activity [3] | Activity [4] | other results |
| --- | --- | --- | --- |
| CCN(CC)CCCN(C(=O)c1ccccc1Cl)c1nc(-c2cc(OC)ccc2OC)cs1 [2-chloro-N-(3-(diethylamino)propyl)-N-(4-(2,5-dimethoxyphenyl)thiazol-2-yl)benzamide] |  |  | Activity [1]: CHEK2 |
| COc1ccc(-c2csc(N(CCCN3CCOCC3)C(=O)c3ccccc3C#N)n2)cc1 [2-cyano-N-(4-(4-methoxyphenyl)thiazol-2-yl)-N-(3-morpholinopropyl)benzamide] |  |  | Activity [2]: ZAP70 |
| COc1ccc(-c2csc(N(CCCN3CCOCC3)C(=O)c3sccc3Br)n2)cc1 [3-bromo-N-(4-(4-methoxyphenyl)thiazol-2-yl)-N-(3-morpholinopropyl)thiophene-2-carboxamide] | AKT1 |  | Activity [2]: ZAP70 |
| COc1ccc(-c2csc(N(CCCN3CCOCC3)C(=O)c3nsc(Cl)c3Cl)n2)cc1 [4,5-dichloro-N-(4-(4-methoxyphenyl)thiazol-2-yl)-N-(3-morpholinopropyl)isothiazole-3-carboxamide] |  |  | Activity [2]: ZAP70 |
| COc1ccc(-c2csc(N(C)C(=O)CCC(=O)O)n2)cc1 [4-((4-(4-methoxyphenyl)thiazol-2-yl)(methyl)amino)-4-oxobutanoic acid] |  | DYRK2 |  |
| COc1ccc(-c2csc(N(CCc3ccccc3)C(=O)CCC(=O)O)n2)cc1 [4-((4-(4-methoxyphenyl)thiazol-2-yl)(phenethyl)amino)-4-oxobutanoic acid] |  | DYRK2 |  |
| COc1ccc(-c2csc(N(Cc3ccco3)C(=O)CCC(=O)O)n2)cc1 [4-((furan-2-ylmethyl)(4-(4-methoxyphenyl)thiazol-2-yl)amino)-4-oxobutanoic acid] |  | DYRK2 |  |
| COc1ccc(-c2csc(N(Cc3ccccc3)C(=O)CCC(=O)O)n2)cc1 [4-(benzyl(4-(4-methoxyphenyl)thiazol-2-yl)amino)-4-oxobutanoic acid] |  | DYRK2 |  |
| CCN(C(=O)CCC(=O)O)c1nc(-c2ccc(OC)cc2)cs1 [4-(ethyl(4-(4-methoxyphenyl)thiazol-2-yl)amino)-4-oxobutanoic acid] |  | DYRK2 |  |
| COc1ccc(-c2csc(N(CCCN3CCOCC3)C(=O)c3ccc(C(C)=O)s3)n2)cc1 [5-acetyl-N-(4-(4-methoxyphenyl)thiazol-2-yl)-N-(3-morpholinopropyl)thiophene-2-carboxamide] |  |  | Activity [2]: ZAP70 |
| COc1ccc(-c2csc(N(CCCN3CCOCC3)C(=O)c3ccc(Br)s3)n2)cc1 [5-bromo-N-(4-(4-methoxyphenyl)thiazol-2-yl)-N-(3-morpholinopropyl)thiophene-2-carboxamide] | AKT1 |  | Activity [2]: ZAP70 |
| COc1ccc(-c2csc(N(CCCN3CCOCC3)C(=O)c3cccc(Cl)n3)n2)cc1 [6-chloro-N-(4-(4-methoxyphenyl)thiazol-2-yl)-N-(3-morpholinopropyl)picolinamide] | AKT1 |  | Activity [2]: ZAP70 |
| COCCN(C(C)=O)c1nc(-c2ccc(OC)cc2)cs1 [N-(2-methoxyethyl)-N-(4-(4-methoxyphenyl)thiazol-2-yl)acetamide] |  | DYRK2 |  |

More lines, main results first:

| Activity [3] | Activity [4] | SMILES | other results |
| --- | --- | --- | --- |
| AKT1 |  | CN1CCN(CCCN(C(=O)c2cccs2)c2nc(-c3ccccc3)cs2)CC1 [N-(3-(4-methylpiperazin-1-yl)propyl)-N-(4-phenylthiazol-2-yl)thiophene-2-carboxamide] | Activity [1]: CHEK2 |
| AKT1 |  | CCN(CC)CCCN(C(=O)c1ccccc1F)c1nc(-c2cc(OC)ccc2OC)cs1 [N-(3-(diethylamino)propyl)-N-(4-(2,5-dimethoxyphenyl)thiazol-2-yl)-2-fluorobenzamide] | Activity [1]: CHEK2 |
|  | DYRK2 | CCN(CC)CCCN(C(=O)COc1ccc(C)cc1)c1nc(-c2ccc(OC)cc2)cs1 [N-(3-(diethylamino)propyl)-N-(4-(4-methoxyphenyl)thiazol-2-yl)-2-(p-tolyloxy)acetamide] |  |
| AKT1 |  | CN(C)CCCN(C(=O)c1ccccc1F)c1nc(-c2ccccc2)cs1 [N-(3-(dimethylamino)propyl)-2-fluoro-N-(4-phenylthiazol-2-yl)benzamide] | Activity [1]: CHEK2 |
| AKT1 |  | COc1ccc(OC)c(-c2csc(N(CCCN3CCN(C)CC3)C(=O)c3ccco3)n2)c1 [N-(4-(2,5-dimethoxyphenyl)thiazol-2-yl)-N-(3-(4-methylpiperazin-1-yl)propyl)furan-2-carboxamide] | Activity [1]: CHEK2 |
|  | DYRK2 | COc1ccc(-c2csc(N(CCCN3CCOCC3)C(=O)CC(C)(C)C)n2)cc1 [N-(4-(4-methoxyphenyl)thiazol-2-yl)-3,3-dimethyl-N-(3-morpholinopropyl)butanamide] |  |
|  | DYRK2 | COc1ccc(-c2csc(N(CCCN3CCOCC3)C(=O)c3conc3C)n2)cc1 [N-(4-(4-methoxyphenyl)thiazol-2-yl)-3-methyl-N-(3-morpholinopropyl)isoxazole-4-carboxamide] | Activity [2]: ZAP70 |
|  | DYRK2 | CCC(=O)N(CCCOC)c1nc(-c2ccc(OC)cc2)cs1 [N-(4-(4-methoxyphenyl)thiazol-2-yl)-N-(3-methoxypropyl)propionamide] |  |
|  | DYRK2 | COc1ccc(-c2csc(N(CCCN3CCOCC3)C(C)=O)n2)cc1 [N-(4-(4-methoxyphenyl)thiazol-2-yl)-N-(3-morpholinopropyl)acetamide] |  |
| AKT1 | DYRK2 | COc1ccc(-c2csc(N(CCCN3CCOCC3)C(=O)c3ccco3)n2)cc1 [N-(4-(4-methoxyphenyl)thiazol-2-yl)-N-(3-morpholinopropyl)furan-2-carboxamide] |  |
|  | DYRK2 | CCC(=O)N(CC1CCCO1)c1nc(-c2ccc(OC)cc2)cs1 (centres unmarked) [N-(4-(4-methoxyphenyl)thiazol-2-yl)-N-((tetrahydrofuran-2-yl)methyl)propionamide] |  |
|  | DYRK2 | COc1ccc(-c2csc(N(C)C(C)=O)n2)cc1 [N-(4-(4-methoxyphenyl)thiazol-2-yl)-N-methylacetamide] |  |
|  | DYRK2 | CCC(=O)N(CC)c1nc(-c2ccc(OC)cc2)cs1 [N-ethyl-N-(4-(4-methoxyphenyl)thiazol-2-yl)propionamide] |  |
